Consider 1 compound from EP0108147B1, “Use of a protoberberine alkaloid and composition containing same” (MAROKO, Peter R., priority 1982, dated 1983).

One data set deals with canine. Briefly: Effect of berberine after intravenous propanolol, 12 canine experiments. The conditions noted are these: intravenous propanolol (1 mg/kg). The class given is in vivo. From the text: The mechanism of berberine is dissimilar to that of beta-adrenergic agonists, which while increasing contractility, increase heart rate also. […] Berberine differs also from digitalis because it reduces peripheral resistance in the non-failing heart.

In another data set the test system is dogs. Briefly: Protocol RK: systemic arterial pressure and heart rate, pressure not held constant, two doses. The class given is in vivo. From the text:
The protocol was the same as described above except that in these dogs, contrary to the previously reported series, the systolic arterial pressure was not maintained constant. Also, the dogs were instrumented only with an electrocardiogram (with lead aVF being constantly recorded), and polyethylene cannula in aorta introduced through the carotid artery to measure aortic pressures, and another cannula in the jugular vein for drug administration. Average heart rate (measured by continuously monitored electrocardiographic lead aVF) was reduced from 146 ± 4 (mean ± 1 S.E.M.) to […] (p <0.1) after the first 45 minutes. After the second 45 minutes heart beat rate was further reduced to […] (p <0.01 ).

Data set [1] is described as follows: Microneucleus test with Ames test on urine for mutagenic potential. A general note: In the Ames test, an excess of revertant colonies over the control signals mutagenicity.

For `COc1ccc2cc3[n+](cc2c1OC)CCc1cc2c(cc1-3)OCO2` [berberine], the “effect on contractility, arterial pressure or heart rate after beta blockade” value in the data set on canine is listed as “did not change the effect of berberine”. In addition, in the data set with dogs (after 90 minutes, from 114 ± 7), the mean pressure was found to be 96 ± 5 mmHg. Also, in the data set on dogs (end of the experiment, from an average of 28), the “pulse pressure (systolic minus diastolic pressure)” value turned out to be 35 mmHg. The “Mean systemic arterial pressure” value with dogs (first dose, 5 minutes, from 114 ± 7) is recorded as 87 ± 5 mmHg; in the data set with dogs (first dose, 10 minutes) it was 93 ± 4 mmHg; in the data set with dogs (first dose, 15 minutes), 92 ± 5 mmHg; in the data set on dogs (first dose, 30 minutes), 101 ± 7 mmHg; in the data set on dogs (first dose, 45 minutes) it was 101 ± 7 mmHg; in the data set on dogs (second dose, 5 minutes) it was 94 ± 4 mmHg. In addition, the “Mean systemic arterial pressure” value with dogs (second dose, 10 minutes) is on record as 95 ± 6 mmHg; in the data set with dogs (second dose, 15 minutes) it was 95 ± 5 mmHg; in the data set on dogs (second dose, 30 minutes), 97 ± 5 mmHg; with dogs (second dose, 45 minutes), 97 ± 5 mmHg. Also, the mutagenic potential entry in data set [1] is listed as “negative”.
